Assay results reported in US20100260716A1, “COMPOUNDS FOR TREATING DEM[…]” (UCB PHARMA GMBH, priority 2007, published 2010).

Tests used:
[1] = test system: acute EAE induced by MBP/CFA; assay: Acute experimental allergic encephalomyelitis (EAE) rat model; assay type: in vivo, female Lewis rats; details: days 0-21, vehicle-treated animals onset at day 9, significantly postponed
Description: EAE is induced in female Lewis rats on day zero of the study by a single inoculum injection of myelin basic protein (MBP) and complete Freund's adjuvant (CFA) containing heat killed Mycobacterium tuberculosis F137 Ra at a concentration of 4 mg/ml (MD Biosciences Ltd, Israel). This MBP/CFA encephalitogenic emulsive inoculum (100 μg MBP+200 μg CFA) is injected at a total dose volume of 100 μl/animal, delivered as 2×50 subcutaneous bilateral injections into the intraplanar paw regions.
Lacosamide is administered by intraperitoneal (i.p.) injection twice daily (b.i.d.) on days 0-21 of the study, in a volume of 10 ml/kg at daily doses of 6, 20 and 60 mg/kg. A vehicle control containing no lacosamide is administered by the same route and at the same frequency.
The duration of the study is 21 days. Careful clinical examinations are carried out and recorded at least once daily in addition to EAE clinical scoring and assessment. […]
Initially, all animals are examined for signs of any neurological responses and symptoms prior to EAE induction (day 0) and thereafter examined on a daily basis through the entire 21-day observation period. To avoid experimental bias, EAE reactions are determined in a blinded fashion, as much as possible, by a staff member unaware of the specific treatment applied. […]

[2] = target: collapsin response mediator protein 2 (CRMP-2) (Homo sapiens, UniProt Q16555); details: statement quoted from poster, Stoehr et al., November 2006; cited from earlier work

## COC[C@@H](NC(C)=O)C(=O)NCc1ccccc1 [lacosamide, (R)-2-acetamido-N-benzyl-3-methoxypropionamide]
[1]; 10 mg/kg b.i.d. i.p.
  Disease onset (day after EAE induction): 12 days
[1]; 30 mg/kg b.i.d. i.p.
  Disease onset (day after EAE induction): 12 days
[2]
  Effect on CRMP-2 and on the effects of neurotrophic factors on axon growth: modulates CRMP-2 and as a consequence attenuates the effects of neurotrophic factors on axon growth
